# Data published in paper PMC7022378, “Structural Analyses on the Deamidation of N-Terminal Asn in the Human N-Degron Pathway” (Biomolecules, 2020).
# Substitutions are numbered along the chain they refer to.
# Key:
# NTAN1 E260A = target: T1, NTAN1 E260A (Homo sapiens, UniProt Q96AB6, E260A); test: In vitro deamidation assay, NTAN1 E260A mutant; format: biochemical; details: substrate NRAAA, 100 μM, 37 °C, pH 7.0, LC-MS (Figure 3d); three independent experiments
# T1 construct: The gene for full-length NTAN1 was cloned into pET-21a(+); made in house; host or cells: E. coli Rosetta 2(DE3)
# T1 sequence (Q96AB6 1-310 E260A): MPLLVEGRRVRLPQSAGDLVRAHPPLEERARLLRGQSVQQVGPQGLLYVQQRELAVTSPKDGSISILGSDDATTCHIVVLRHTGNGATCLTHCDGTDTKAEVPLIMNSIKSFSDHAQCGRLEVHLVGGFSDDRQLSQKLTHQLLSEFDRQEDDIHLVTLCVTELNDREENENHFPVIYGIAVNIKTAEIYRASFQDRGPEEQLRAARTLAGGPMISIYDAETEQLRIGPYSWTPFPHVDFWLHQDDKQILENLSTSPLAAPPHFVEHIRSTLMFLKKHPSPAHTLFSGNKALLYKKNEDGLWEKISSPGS
# Description: (§1) NTAN1 mutants were constructed using QuikChange Ⅱ Site-Directed Mutagenesis Kit (Agilent Technologies, Santa Clara, CA, USA). NTAN1 mutants, Q51A, S69A, T73A, T74A, C75A, H92A, S254A, T255A, and E260A were generated. The mutants were expressed and purified as for NTAN1.
# (§2) Peptides with Nt-Asn which mimic potential substrates of NTAN1 were synthesized: NRA, NRAA, NRAAA, NRQVA, NRQVAA, NRQVAAA, NFAAR, NLAAR, NRAAR, NAAAR, NNAAR, NPAAR, NGAAR, and NDAAR. Non-Nt-Asn peptides, QRAAA and VRAAA, were also synthesized. NTAN1 (at concentrations of 0.5 μM, 0.16 μM, or 0.04 μM) and the peptides (at a concentration of 100 μM) were mixed and incubated at 37 °C in a buffer containing 200 mM NaCl and 10 mM HEPES-NaOH (pH 7.0). […] The deamidation coefficient of peptides catalyzed by NTAN1 was assessed by the slope of exponential curve drawn from the concentration of the substrate over incubation time.
# (§3) The peptides were quantified by an LC-MS system (1260 Infinity/6430 Triple Quad, Agilent Technologies) equipped with a binary pump (G1312B), a thermostated column compartment (G1316C), a thermostat (G1330B), and an autosampler (G1367E). […] The data acquisition and processing were performed by using MassHunter Workstation Software Quantitative Analysis (Version B.05.00; Agilent Technologies, Santa Clara, CA, USA). […]
# NTAN1 H92A = target: T2, NTAN1 H92A (Homo sapiens, UniProt Q96AB6, H92A); test: In vitro deamidation assay, NTAN1 H92A mutant; format: biochemical; details: substrate NRAAA, 100 μM, 37 °C, pH 7.0, LC-MS; vs wild-type (Figure 1f); three independent experiments
# T2 construct: The gene for full-length NTAN1 was cloned into pET-21a(+); made in house; host or cells: E. coli Rosetta 2(DE3)
# T2 sequence (Q96AB6 1-310 H92A): T1 sequence (Q96AB6 1-310 E260A) with H92A, A260E
# Description: as §1, §2, §3
# NTAN1 T255A = target: T3, NTAN1 T255A (Homo sapiens, UniProt Q96AB6, T255A); test: In vitro deamidation assay, NTAN1 T255A mutant; format: biochemical; details: substrate NRAAA, 100 μM, 37 °C, pH 7.0, LC-MS (Figure 3c); three independent experiments
# T3 construct: The gene for full-length NTAN1 was cloned into pET-21a(+); made in house; host or cells: E. coli Rosetta 2(DE3)
# T3 sequence (Q96AB6 1-310 T255A): T1 sequence (Q96AB6 1-310 E260A) with T255A, A260E
# Description: as §1, §2, §3
# NTAN1 Q51A = target: T4, NTAN1 Q51A (Homo sapiens, UniProt Q96AB6, Q51A); test: In vitro deamidation assay, NTAN1 Q51A mutant; format: biochemical; details: substrate NRAAA, 100 μM, 37 °C, pH 7.0, LC-MS (Figure 3e); three independent experiments
# T4 construct: The gene for full-length NTAN1 was cloned into pET-21a(+); made in house; host or cells: E. coli Rosetta 2(DE3)
# T4 sequence (Q96AB6 1-310 Q51A): T1 sequence (Q96AB6 1-310 E260A) with Q51A, A260E
# Description: as §1, §2, §3
# NTAN1 S69A = test: In vitro deamidation assay, NTAN1 S69A mutant; format: biochemical, human; details: substrate NRAAA, 100 μM, 37 °C, pH 7.0, LC-MS (Figure 1d); three independent experiments
# Description: as §1, §2, §3
substance,measurement,setting,value
"NRAAA [synthesized peptide with Nt-Asn, 5 mer model substrate of NTAN1]",Deamidation activity of NTAN1 E260A,NTAN1 E260A,lost its deamidation activity
same,Deamidation activity of NTAN1 H92A,NTAN1 H92A,completely abolished
same,Enzymatic activity of NTAN1 T255A,NTAN1 T255A,abolished
same,Deamidation activity of NTAN1 Q51A,NTAN1 Q51A,lost most deamidation activity
same,Fold lower deamidation activity of NTAN1 S69A than wild-type NTAN1,NTAN1 S69A,approximately 5 fold
